In US9708368B2, “Linear peptide antibiotics” (priority 2012, dated 2017):
Converted amounts (≈) assume the structure as drawn. Square brackets hold non-standard residues; d marks the D form. Peptide text beside a SMILES is read from it. * marks the point of attachment. ξ: configuration not given here. boroAla((+)-pinanediol) = C[C@H](N*)B1O[C@@H]2C[C@@H]3C[C@@H](C3(C)C)[C@]2(C)O1; Biphenylcarbonyl(4'-Bu) = CCCCc1ccc(-c2ccc(C(=O)*)cc2)cc1; X1 = C[C@H](N*)B1OC2C[C@@H]3C[C@@H](C3(C)C)[C@]2(C)O1; Benzoyl(4-(4-Cl-Ph)) = O=C(c1ccc(-c2ccc(Cl)cc2)cc1)*; Benzoyl(4-octyl) = CCCCCCCCc1ccc(C(=O)*)cc1; X15 = CCCCCCN1CCC(c2ccc(C(=O)*)cc2)CC1; NMeThr(3ξ) = CN[C@H](C(=O)O)C(C)O; NMeT = CN[C@H](C(=O)O)[C@@H](C)O; Myristoyl = CCCCCCCCCCCCCC(=O)*; Gly(cPr) = N[C@H](C(=O)O)C1CC1; Thr(3ξ) = CC(O)[C@H](N)C(=O)O; boroAla = C[C@H](N*)B(O)O; Dab = NCC[C@H](N)C(=O)O; Dap = NC[C@H](N)C(=O)O; βAla = NCCC(=O)O

How the values were obtained:
[1] = tested on: Escherichia coli MC4100 IMP-4213 in which transcription of the SPase encoding gene is under control of a tetracycline inducible promoter; conditions: Method A; E. coli MC4100 IMP-4213 with decreased SPase expression; 35° C., 22 hours
Protocol: (§1) In vitro antimicrobial activity of each compound was determined by measuring minimal inhibitor concentrations (MICs) using the broth micro-dilution technique as approved by the Clinical and Laboratory Standards Institute (CLSI). […] Cells were inoculated onto Trypyticase Soy Agar or Luria Agar containing 16 ng/ml of anhydrotetracycline respectively and grown at 35° C. for 20 hours. Inocula suspensions were made by scraping cells into 1 mL of testing media (cation adjusted Mueller Hinton Broth supplemented with 0.002% v/v Tween-80) and diluting to a final OD600 nm of 0.01.
(§2) Test compounds were prepared in DMSO at a concentration of 10 mg/ml. […] Inocula suspensions were added to the two fold serial dilutions of test compounds to a final density of OD OD600 nm of 0.0005 and incubated stationary at 35° C. for 22 hours, after which the plates were examined visually.

[2] = tested on: Methicillin Resistant Staphylococcus aureus strain USA 300 (NRS384); conditions: Method A; MRSA USA 300 (NRS384); 35° C., 22 hours
Protocol: as §1, §2

S. aureus SPase = S. aureus SPase (Staphylococcus aureus, UniProt P0A070); experiment: biochemical
E. coli SPase = E. coli SPase (Escherichia coli, UniProt P00803); experiment: Biochemical SPase activity assay (fluorogenic peptide substrate), E. coli enzyme
Protocol: Reactions were initiated by the addition of substrate to a final concentration of 20 μM. Reaction progress was monitored by measuring the increase in fluorescence signal (excitation at 314 nm, emission at 416 nm) using a SpectraMax M2 fluorescence microplate reader. […] Three-folder serial dilutions of test compounds, starting at 10 μM, were prepared in enzyme mix solution and incubated at room temperature for 10 minutes. Following this incubation, fluorogenic substrate was added to a final concentration of 20 μM and the increase in fluorescence, corresponding to substrate cleavage, was monitored continuously at room temperature for 1 hour. Initial reaction rates were calculated based on the rate of increase in fluorescence during the reaction. Reaction rates were plotted as a function of compound concentration, and IC50 values are determined nonlinear regression analysis (SoftMaxPro 5.4, Molecular Devices™) of the sigmoidal dose-response curve.

[3] = tested on: Escherichia coli strain MC4100 IMP-4213, which harbors an LptD mutation; conditions: Method B; E. coli MC4100 IMP-4213 (LptD mutation); 35° C., 22 hours
Procedure, shortened: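 Two-fold serial dilutions of compound inoculated at final OD600 0.0005, incubated static at 35 °C for 22 h, and growth read visually.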

[4] = tested on: methicillin resistant Staphylococcus aureus (MRSA) strain USA300 (NRS384); conditions: Method B, 35° C., 22 hours

Sequence of S. aureus SPase (P0A070 whole entry): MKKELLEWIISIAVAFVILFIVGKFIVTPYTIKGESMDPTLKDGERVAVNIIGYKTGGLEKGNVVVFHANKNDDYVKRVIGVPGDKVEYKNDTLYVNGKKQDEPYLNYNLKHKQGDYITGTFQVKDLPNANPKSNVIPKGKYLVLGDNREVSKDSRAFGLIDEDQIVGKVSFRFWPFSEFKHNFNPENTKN
Sequence of E. coli SPase (P00803 whole entry): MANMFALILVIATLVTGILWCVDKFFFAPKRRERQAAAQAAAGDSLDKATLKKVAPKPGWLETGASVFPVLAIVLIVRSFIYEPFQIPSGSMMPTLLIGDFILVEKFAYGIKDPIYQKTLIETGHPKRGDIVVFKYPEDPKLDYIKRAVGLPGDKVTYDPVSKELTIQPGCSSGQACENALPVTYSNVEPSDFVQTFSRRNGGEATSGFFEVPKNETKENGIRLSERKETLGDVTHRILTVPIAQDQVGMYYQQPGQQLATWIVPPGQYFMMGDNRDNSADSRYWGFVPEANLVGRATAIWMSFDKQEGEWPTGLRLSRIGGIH

SMILES | MIC (μg/mL) E. coli [1] [µg/mL] | MIC (μg/mL) S. aureus [2] [µg/mL] | IC50 (S. aureus SPase) [nM] | IC50 (E. coli SPase) [nM] | MIC (μg/mL) E. coli [3] [µg/mL] | MIC (μg/mL) S. aureus [4] [µg/mL]
CCCCc1ccc(-c2ccc(C(=O)NCCC(=O)N[C@@H](CCCCN)C(=O)N[C@H](C(=O)N[C@@H](C)C(=O)N[C@@H](CC(N)=O)C(=O)N[C@@H](C)B3OC4C[C@@H]5C[C@@H](C5(C)C)[C@]4(C)O3)C(C)O)cc2)cc1 (stereo partly shown) [Compound 121] ({Biphenylcarbonyl(4'-Bu)-βAla}-K[Thr(3ξ)]AN-X1) | 0.5 (≈ 0.529 µM) | 0.25 (≈ 0.265 µM) | – | – | – | –
CCCCCCCCCCCCCC(=O)N[C@@H](CC(C)C)C(=O)N[C@H](C(=O)N1CCC[C@@H]1C(=O)N[C@H](C(=O)N[C@@H](C)C(=O)N[C@@H](Cc1ccc(O)cc1)C(=O)NCC=O)C(C)O)C(C)O (stereo partly shown) [Compound 105] (Myristoyl-L[Thr(3ξ)][dP][Thr(3ξ)]AYG-aldehyde) | >64 | >64 | – | – | – | –
CCCCCCCCCCCCCC(=O)N[C@@H](CC(C)C)C(=O)N[C@H](C(=O)N1CCC[C@@H]1C(=O)N[C@H](C(=O)N[C@@H](C)C(=O)N[C@@H](CC(N)=O)C(=O)NCC=O)C(C)O)C(C)O (stereo partly shown) [Compound 103] (Myristoyl-L[Thr(3ξ)][dP][Thr(3ξ)]ANG-aldehyde) | – | >64 | 110 | 11000 | – | –
C[C@H](NC(=O)[C@H](CC(N)=O)NC(=O)[C@H](C)NC(=O)[C@@H](NC(=O)[C@H](CCCCN)NC(=O)CCNC(=O)c1ccc(-c2ccc(Cl)cc2)cc1)[C@@H](C)O)B1OC2C[C@@H]3C[C@@H](C3(C)C)[C@]2(C)O1 (stereo partly shown) [Compound 201] ({Benzoyl(4-(4-Cl-Ph))-βAla}-KTAN-X1) | – | – | 1.9 | 8 | 64 (≈ 69.3 µM) | 4.6 (≈ 4.98 µM)
C[C@H](NC(=O)[C@H](CCCCN)NC(=O)[C@H](C)NC(=O)[C@@H](NC(=O)[C@H](CN)NC(=O)c1ccc(-c2ccc(Cl)cc2)cc1)[C@@H](C)O)B(O)O [Compound 175] ({Benzoyl(4-(4-Cl-Ph))}-[Dap]TAK-boroAla) | – | – | 110 | 5.5 | 2 (≈ 2.9 µM) | 1.2 (≈ 1.74 µM)
CCCCc1ccc(-c2ccc(CNCCC[C@H](NC(C)=O)C(=O)N[C@H](C(=O)N[C@@H](C)C(=O)N[C@@H](CCCCN)C(=O)N[C@@H](C)B3OC4C[C@@H]5C[C@@H](C5(C)C)[C@]4(C)O3)[C@@H](C)O)cc2)cc1 (stereo partly shown) [Compound 275] | – | – | 110 | 1500 | 32 (≈ 35.5 µM) | 1 (≈ 1.11 µM)
CCCCc1ccc(-c2ccc(C(=O)N[C@@H](CCCCN)C(=O)N[C@@H](CCN)C(=O)N[C@@H](C)C(=O)N[C@@H](CC(C)C)C(=O)N[C@@H](C)B(O)O)cc2)cc1 [Compound 161] ({Biphenylcarbonyl(4'-Bu)}-K[Dab]AL-boroAla) | – | – | 300 | 60 | 0.71 (≈ 0.962 µM) | 0.63 (≈ 0.854 µM)
CCCCc1ccc(-c2ccc(CNCCCC(=O)N[C@H](C(=O)N[C@@H](C)C(=O)N[C@@H](CCCCN)C(=O)N[C@@H](C)B3O[C@@H]4C[C@@H]5C[C@@H](C5(C)C)[C@]4(C)O3)[C@@H](C)O)cc2)cc1 [Compound 271] | – | – | 16 | 200 | 11 (≈ 13.2 µM) | 0.5 (≈ 0.602 µM)
CCCCCCCCc1ccc(C(=O)N[C@@H](CCN)C(=O)N[C@H](C(=O)N[C@@H](C)C(=O)N[C@@H](CCCCN)C(=O)N[C@@H](C)B2OC3C[C@@H]4C[C@@H](C4(C)C)[C@]3(C)O2)[C@@H](C)O)cc1 (stereo partly shown) [Compound 232] ({Benzoyl(4-octyl)}-[Dab]TAK-X1) | – | – | 140 | 5 | 0.25 (≈ 0.298 µM) | 0.31 (≈ 0.369 µM)
CCCCc1ccc(-c2ccc(C(=O)NCCC(=O)N[C@@H](CCCCN)C(=O)N(C)[C@H](C(=O)N[C@@H](C)C(=O)N[C@@H](CC(N)=O)C(=O)N[C@@H](C)B3OC4C[C@@H]5C[C@@H](C5(C)C)[C@]4(C)O3)[C@@H](C)O)cc2)cc1 (stereo partly shown) [Compound 192] ({Biphenylcarbonyl(4'-Bu)-βAla}-K[NMeT]AN-X1) | – | – | 12 | 27 | 16 (≈ 16.7 µM) | 0.59 (≈ 0.615 µM)
CCCCc1ccc(-c2ccc(CC(=O)N[C@@H](CCN)C(=O)N[C@H](C(=O)N[C@@H](C)C(=O)N[C@@H](CCCCN)C(=O)N[C@@H](C)B3OC4C[C@@H]5C[C@@H](C5(C)C)[C@]4(C)O3)[C@@H](C)O)cc2)cc1 (stereo partly shown) [Compound 243] | – | – | 80 | 10 | 2 (≈ 2.29 µM) | 0.5 (≈ 0.572 µM)
CCCCc1ccc(-c2ccc(C(=O)NCCC(=O)N[C@@H](CCCCN)C(=O)N[C@H](C(=O)N[C@@H](C)C(=O)N[C@@H](CCC(=O)O)C(=O)N[C@@H](C)B3OC4C[C@@H]5C[C@@H](C5(C)C)[C@]4(C)O3)[C@@H](C)O)cc2)cc1 (stereo partly shown) [Compound 195] ({Biphenylcarbonyl(4'-Bu)-βAla}-KTAE-X1) | – | – | 2.6 | 19 | 32 (≈ 33.3 µM) | 1.2 (≈ 1.25 µM)
CCCCc1ccc(-c2ccc(C(=O)NCCC(=O)N[C@@H](CCCCN)C(=O)N[C@@H](CCCCN)C(=O)N[C@@H](C)C(=O)N[C@@H](CC(C)C)C(=O)N[C@@H](C)B3OC4C[C@@H]5C[C@@H](C5(C)C)[C@]4(C)O3)cc2)cc1 (stereo partly shown) [Compound 218] ({Biphenylcarbonyl(4'-Bu)-βAla}-KKAL-X1) | – | – | 13 | 6.9 | 1.3 (≈ 1.34 µM) | 0.5 (≈ 0.515 µM)
CCCCc1ccc(-c2ccc(C(=O)N[C@@H](CCN)C(=O)N[C@@H](CCN)C(=O)N[C@@H](C)C(=O)N[C@@H](CC(C)C)C(=O)N[C@@H](C)B3O[C@@H]4C[C@@H]5C[C@@H](C5(C)C)[C@]4(C)O3)cc2)cc1 [Compound 171] ({Biphenylcarbonyl(4'-Bu)}-[Dab][Dab]AL-{boroAla((+)-pinanediol)}) | – | – | 520 | 27 | 0.25 (≈ 0.296 µM) | 0.71 (≈ 0.841 µM)
CCCCc1ccc(-c2ccc(C(=O)NCCCC[C@H](NC(=O)[C@H](CCN)NC(C)=O)C(=O)N[C@@H](C)C(=O)N[C@@H](CCCCN)C(=O)N[C@@H](C)B3OC4C[C@@H]5C[C@@H](C5(C)C)[C@]4(C)O3)cc2)cc1 (stereo partly shown) [Compound 279] (Ac-[Dab]K(Biphenylcarbonyl(4'-Bu))AK-X1) | – | – | 7400 | 530 | 8 (≈ 8.61 µM) | 11 (≈ 11.8 µM)
CCCCCCCCCCCCCC(=O)N[C@H](CO)C(=O)N[C@H](C)C(=O)NCC(=O)N(C)[C@H](C(=O)N[C@@H](C)C(=O)N[C@@H](CC(C)C)C(=O)NCC=O)C(C)O (stereo partly shown) [Compound 104] (Myristoyl-[dS][dA]G[NMeThr(3ξ)]ALG-aldehyde) | – | 8 (≈ 10.2 µM) | 18 | 8900 | – | –
CC(C)C[C@H](NC(=O)[C@H](C)NC(=O)[C@H](CN)NC(=O)[C@H](CN)NC(=O)c1ccc(-c2ccc(Cl)cc2)cc1)C(=O)N[C@@H](C)B(O)O [Compound 176] ({Benzoyl(4-(4-Cl-Ph))}-[Dap][Dap]AL-boroAla) | – | – | 1200 | 56 | 8 (≈ 12.1 µM) | 16 (≈ 24.2 µM)
CC(C)C[C@H](NC(=O)[C@H](C)NC(=O)[C@H](CN)NC(=O)[C@H](CN)NC(=O)c1ccc(-c2ccc(Cl)cc2)cc1)C(=O)N[C@@H](C)B1O[C@@H]2C[C@@H]3C[C@@H](C3(C)C)[C@]2(C)O1 [Compound 172] ({Benzoyl(4-(4-Cl-Ph))}-[Dap][Dap]AL-{boroAla((+)-pinanediol)}) | – | – | 750 | 20 | 8 (≈ 10.1 µM) | 8 (≈ 10.1 µM)
CCCCc1ccc(-c2ccc(C(=O)NCCC(=O)N[C@@H](CCCCN)C(=O)N[C@H](C(=O)N[C@@H](C)C(=O)N[C@@H](Cc3ccc(O)cc3)C(=O)N[C@@H](C)B3OC4C[C@@H]5C[C@@H](C5(C)C)[C@]4(C)O3)[C@@H](C)O)cc2)cc1 (stereo partly shown) [Compound 225] ({Biphenylcarbonyl(4'-Bu)-βAla}-KTAY-X1) | – | – | 4 | 7.1 | 2 (≈ 2.01 µM) | 0.57 (≈ 0.573 µM)
CCCCCCN1CCC(c2ccc(C(=O)N[C@@H](CCN)C(=O)N[C@H](C(=O)N[C@@H](C)C(=O)N[C@@H](CCCCN)C(=O)N[C@@H](C)B3O[C@@H]4C[C@@H]5C[C@@H](C5(C)C)[C@]4(C)O3)[C@@H](C)O)cc2)CC1 [Compound 246] (X15-[Dab]TAK-{boroAla((+)-pinanediol)}) | – | – | 290 | 55 | 64 (≈ 71.5 µM) | 23 (≈ 25.7 µM)
CC(C)C[C@H](NC(=O)[C@H](C)NC(=O)[C@H](CCN)NC(=O)[C@H](CCN)NC(=O)c1ccc(-c2ccc(Cl)cc2)cc1)C(=O)N[C@@H](C)B(O)O [Compound 177] ({Benzoyl(4-(4-Cl-Ph))}-[Dab][Dab]AL-boroAla) | – | – | 640 | 70 | 2 (≈ 2.91 µM) | 2 (≈ 2.91 µM)
CCCCc1ccc(-c2ccc(C(=O)N[C@@H](CCCCN)C(=O)N[C@H](C(=O)N[C@H](C(=O)N[C@@H](CCCCN)C(=O)N[C@@H](C)B(O)O)C3CC3)C(C)O)cc2)cc1 (stereo partly shown) [Compound 147] ({Biphenylcarbonyl(4'-Bu)}-K[Thr(3ξ)][Gly(cPr)]K-boroAla) | – | – | 98 | 14 | 0.31 (≈ 0.398 µM) | 0.25 (≈ 0.321 µM)
